# Calls of active or inactive are those of the source. The rule behind the calls is not given here.
# Target: Nuclear receptor coactivator 3 (Homo sapiens) (UniProt Q9Y6Q9)
# Assay: SRC3 coactivator transcriptional activity inhibitors, dose response, cell-based, luminescence (AID 602166);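 note: potency for reduction of SRC3 reporter signal so compounds are inhibitors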
# Conditions: SRC3 luciferase reporter cell assay
# Sequence of Nuclear receptor coactivator 3 (Homo sapiens) (Q9Y6Q9 whole entry, looked up): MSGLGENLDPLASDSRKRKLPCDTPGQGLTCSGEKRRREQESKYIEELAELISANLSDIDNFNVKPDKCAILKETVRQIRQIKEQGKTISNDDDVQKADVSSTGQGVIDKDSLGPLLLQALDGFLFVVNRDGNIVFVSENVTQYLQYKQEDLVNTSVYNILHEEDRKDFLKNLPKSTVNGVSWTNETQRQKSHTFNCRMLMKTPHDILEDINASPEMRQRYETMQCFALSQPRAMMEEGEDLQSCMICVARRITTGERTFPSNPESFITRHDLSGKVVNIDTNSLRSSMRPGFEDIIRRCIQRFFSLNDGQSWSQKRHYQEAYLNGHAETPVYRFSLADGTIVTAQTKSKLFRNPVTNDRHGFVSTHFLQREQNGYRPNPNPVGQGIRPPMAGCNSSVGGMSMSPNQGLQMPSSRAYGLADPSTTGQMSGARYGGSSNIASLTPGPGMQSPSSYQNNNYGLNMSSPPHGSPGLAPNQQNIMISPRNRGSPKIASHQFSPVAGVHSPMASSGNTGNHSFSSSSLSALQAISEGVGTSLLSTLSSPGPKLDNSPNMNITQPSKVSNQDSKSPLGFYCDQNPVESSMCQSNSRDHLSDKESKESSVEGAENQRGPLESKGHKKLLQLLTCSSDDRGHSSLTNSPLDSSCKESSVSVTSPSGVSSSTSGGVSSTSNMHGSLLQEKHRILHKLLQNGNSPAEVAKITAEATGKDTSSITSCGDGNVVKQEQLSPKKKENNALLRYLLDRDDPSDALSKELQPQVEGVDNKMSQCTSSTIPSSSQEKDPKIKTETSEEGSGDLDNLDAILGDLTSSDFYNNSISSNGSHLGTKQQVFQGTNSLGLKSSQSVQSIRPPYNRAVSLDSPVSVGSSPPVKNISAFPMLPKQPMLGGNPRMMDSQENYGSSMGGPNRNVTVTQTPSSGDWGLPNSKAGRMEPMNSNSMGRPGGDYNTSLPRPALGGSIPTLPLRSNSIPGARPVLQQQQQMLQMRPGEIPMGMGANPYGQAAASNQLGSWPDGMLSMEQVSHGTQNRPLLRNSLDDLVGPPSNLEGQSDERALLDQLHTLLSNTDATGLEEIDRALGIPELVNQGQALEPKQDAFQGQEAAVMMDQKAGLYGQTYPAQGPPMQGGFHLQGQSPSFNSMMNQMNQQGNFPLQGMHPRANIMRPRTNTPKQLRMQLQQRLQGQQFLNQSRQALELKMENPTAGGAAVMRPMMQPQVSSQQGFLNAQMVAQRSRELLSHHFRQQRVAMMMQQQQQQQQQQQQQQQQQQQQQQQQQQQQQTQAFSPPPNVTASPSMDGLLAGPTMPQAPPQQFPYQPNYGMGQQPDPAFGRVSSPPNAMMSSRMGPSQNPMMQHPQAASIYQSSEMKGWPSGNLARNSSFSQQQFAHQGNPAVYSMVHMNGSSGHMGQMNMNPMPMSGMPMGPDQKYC
row,SMILES,IC50
1,COc1cc(/C=N/NC(=Nc2ccc(C)cc2)c2nc3ccccc3s2)ccc1O,> 35.9 µM (inactive)
2,Nc1ncccc1C(=O)OCC(=O)N1CCN(S(=O)(=O)c2ccc(Cl)cc2)CC1,7.74 µM
3,CNc1ncnc(Sc2nc(N)nc3nc[nH]c23)c1[N+](=O)[O-],4.17 µM
4,COc1cc(C(=O)OCC(=O)Nc2sccc2C(N)=O)cc(OC)c1OC,> 35.9 µM (inactive)
5,CCn1c2ccccc2c2cnc(N=CN(C)C)c(C#N)c21,4.94 µM
6,CC(=O)Nc1ccc(SCC(=O)c2cc(C)n(-c3ccccc3F)c2C)cc1,> 35.9 µM (inactive)
7,NNC(=O)c1cc2ccccc2cc1O,7.35 µM
8,O=C(N/N=C\c1ccc([N+](=O)[O-])o1)C1COc2ccccc2O1 (stereo not given),> 35.9 µM (inactive)
9,Cc1ccc(/C=C2/SC(=S)N(CCCC(=O)Nc3ccc(O)cc3)C2=O)cc1,6.45 µM
10,COc1cc2c(cc1OC)C(C)N(C(=O)c1cccc([N+](=O)[O-])c1)CC2 (stereo not given),7.21 µM
11,COc1ccc(/C=C2/SC(=S)N(CCC(=O)O)C2=O)cc1,> 35.9 µM (inactive)
12,Cc1ccc(C2=NN(C(=O)CCl)C(c3cccs3)C2)o1 (stereo not given),inactive
13,CCOc1ccc(CC(=O)Nc2ccc(NC(=O)c3ccco3)cc2)cc1OCC,4.24 µM
14,COc1ccc(COC(=O)C2=C(C)NC(=O)NC2c2ccc(F)cc2)cc1 (stereo not given),7.71 µM
15,CCCNC(=O)c1nnsc1S(=O)(=O)c1ccc(Cl)cc1,8.04 µM
16,Cc1ccc(C(=O)O/N=C(\N)c2ccccn2)c(Cl)c1,> 35.9 µM (inactive)
17,CCOC(=O)C(=CNc1ccc(NC2=NCC(C)S2)cc1)C(=O)OCC (stereo not given),3.32 µM
18,CN(Cc1cnc2nc(N)nc(N)c2n1)c1ccc(C(=O)NC(CCC(=O)O)C(=O)O)cc1 (stereo not given),> 35.9 µM (inactive)
19,Cc1cc(C(=O)CN2C(=O)c3ccccc3S2(=O)=O)c(C)n1C(C)C,inactive
20,NC(=O)c1cc(Sc2ccccc2)nc2ccccc12,3.53 µM
21,CC(C)(C)C(=O)Nc1ccc(N=Nc2ccccc2)cc1,> 35.9 µM (inactive)
22,CN(C)c1ccc(/C=C/c2ccc3ccccc3n2)cc1,5.65 µM
23,N#Cc1c2ccc(O)cc2n2ccccc12,3.41 µM
24,Cc1ccc(OCC(=O)c2cc(C)n(-c3ccccc3)c2C)c([N+](=O)[O-])n1,inactive

row,SMILES,IC50
1,CC(=O)NC(c1cc(Cl)c2cccnc2c1O)C(C)C (stereo not given),4.54 µM
2,COc1cccc(F)c1C(C[N+](=O)[O-])c1c(N)n(C)c(=O)n(C)c1=O (stereo not given),inactive
3,CC1(C)N=C(N)N=C(N)N1CCCCc1ccccc1,3.98 µM
4,COc1cc2c(ccc3cc(OC)c(OC)c(O)c32)cc1O,inactive
5,Cc1c(Cl)cccc1NC(=O)Nc1ccccc1C(N)=O,> 35.9 µM (inactive)
6,O=c1[nH]c(O)c(N=Nc2ccc3c(c2)OCCO3)c(=O)[nH]1,> 35.9 µM (inactive)
7,O=C(NC(NC(=S)N1CCOCC1)C(Cl)(Cl)Cl)c1ccc(Cl)cc1 (stereo not given),> 35.9 µM (inactive)
8,Cc1ccc(N(CCC#N)C(=O)CCl)cc1C,8.64 µM
9,COCCNC(=O)c1cc(-c2ccccn2)nc2ccc(S(=O)(=O)N3CCC(C)CC3)cc12,> 35.9 µM (inactive)
10,Fc1ccc(CSc2nnc(-c3ccncc3)o2)cc1,2.44 µM
11,Cc1cccc(Oc2sc(C(=O)c3ccccc3)c(N)c2C#N)c1,8.09 µM
12,Nc1ncnc(NCc2ccccc2)c1[N+](=O)[O-],5.6 µM
13,Nc1ccc(-c2cc3ccccc3oc2=O)cc1,8.26 µM
14,O=C(CC1CS(=O)(=O)CC1CC(=O)Nc1ccc2c(c1)OCCO2)Nc1ccc2c(c1)OCCO2 (stereo not given),> 35.9 µM (inactive)
15,C=CCOn1c(C)c(C(C)=O)c2c3nonc3ccc21,4.12 µM
16,C#CC(=O)N(c1cc(OC)ccc1OC)C(C(=O)NC1CCCC1)c1cccs1 (stereo not given),> 35.9 µM (inactive)
17,Cc1ccc2occ(/C=N/NC(=O)[C@@H](N)Cc3ccccc3)c(=O)c2c1,9.86 µM
18,CC(=O)Nc1ccc(SCC(=O)c2cc(C)n(-c3ccccc3)c2C)cc1,> 35.9 µM (inactive)
19,Cc1ncc(CO)c(/C=N/NC(=O)c2cc3c(s2)CCCC3)c1O,7.15 µM
20,NC(=S)N/N=C1\CCSc2ccc(Cl)cc21,3.94 µM
21,O=c1[nH]cnc2c1nnn2C1OC(CO)C(O)C1O (stereo not given),4.66 µM
22,COc1cc(C2c3cc4c(cc3C(OC3OC5COC(c6cccs6)OC5C(O)C3O)C3COC(=O)C23)OCO4)cc(OC)c1O (stereo not given),0.093 µM
23,O=C(N/N=C(\c1ccccc1)c1ccccn1)c1ccccc1Cl,inactive
24,COc1cccc(NC(=O)CSc2nnc(-c3cc(C)n(-c4ccccc4)c3C)o2)c1,> 35.9 µM (inactive)

row,SMILES,IC50
1,Cc1nc([N+](=O)[O-])c(Sc2nc3ccccc3n2C)n1Cc1ccccc1,inactive
2,CCCCC(=O)NC(c1ccc(Cl)cc1Cl)c1ccc2cccnc2c1O (stereo not given),4.71 µM
3,Brc1ccc2ncc3ccccc3c2c1,8.02 µM
4,Nc1nc(CCl)nc(Nc2cccc3ccccc23)n1,inactive
5,C=CC[n+]1c(-c2ccc(C)cc2)csc1Nc1ccc(NC(C)=O)cc1,> 35.9 µM (inactive)
6,COc1ccccc1N(C(=O)CCl)c1cn(C(C)=O)c2ccccc12,8.1 µM
7,CO[C@@]12[C@@H]3N[C@@H]3CN1C1=C(C(=O)C(N)=C(C)C1=O)[C@@H]2COC(N)=O,> 35.8 µM (inactive)
8,O=C(COc1ccc(Cl)cc1)Nc1ccc(C(=O)NCc2cccnc2)cc1,inactive
9,CC(C)N(c1ccccc1)c1ccc(NC(=O)CCl)cc1,inactive
10,O=C(Nc1nc2cc3c(cc2s1)OCCO3)C1=COCCO1,inactive
11,CCOc1ccc(-c2cc(C)n3nc(C(N)=O)cc3n2)cc1,7.81 µM
12,CCCc1c(C)nc2ccccc2c1SCCC#N,7.93 µM
13,CC(=O)N1CCN(c2ncnc3ccccc23)CC1,8.94 µM
14,CN1CCN(c2ccc(NC(=O)N3CCc4ccccc43)cc2)CC1,> 35.9 µM (inactive)
15,O=c1[nH]c2ccccc2n1C1CCN(C(c2cccc3ccccc23)c2nnnn2-c2ccc3c(c2)OCCO3)CC1 (stereo not given),inactive
16,NS(=O)(=O)c1ccc(Sc2nc3ccccc3s2)c([N+](=O)[O-])c1,inactive
17,CCOc1ccc(Nc2cc(C)nc(-n3nc(C)cc3C)n2)cc1,> 35.9 µM (inactive)
18,Cc1ccc(NC(=O)c2cc(C)n(-c3ccccc3)c2C)cc1,> 35.9 µM (inactive)
19,O=C(OCCC12CC3CC(CC(C3)C1)C2)c1ccc(NCc2cc(O)ccc2O)cc1,4.38 µM
20,CCN(C(C)=O)c1cnc(C=NNC(N)=S)c2ccccc12,4.67 µM
21,COc1ccc(-n2cnc3c(sc4nccc(N(C)C)c43)c2=O)cc1,8.19 µM
22,CS(=O)(=O)c1ccc(Sc2nc3ccccc3s2)c([N+](=O)[O-])c1,> 35.9 µM (inactive)
